“And” between values parts separate entries of the source, which are not always exact repeats. Identical values can stand only once. Like-named read-outs stand apart in the source and are kept apart here.

Data set [1] concerns anesthetized cats. Briefly: cardiotonic effect on anesthetized cats. In kind it is in vivo, cat. The settings on record: Felis catus; for change in vivo at 0.01 mg/kg: 0.01 mg/Kg iv; for change in vivo at 0.03 mg/kg: 0.03 mg/Kg iv; for change in vivo at 0.1 mg/kg: 0.1 mg/Kg iv; for change in vivo at 0.31 mg/kg: 0.31 mg/Kg iv. The method, then:
Determination of cardiotonic effect on anesthetized cats: Male cats weighing about 3 kg were anesthetized with sodium pentobarbital (30 mg/kg, i.p.). The same anesthetic was infused intravenously at the does of 4 mg/kg/hr in order to maintain the anesthetic state and mechanically ventilated through a cuffed endotracheal tube, chest was opened by a midline incision and a catheter for measuring left ventricular pressure was inserted through apex into left ventricle and the left ventricular pressure was measured. LVdP/dt was determined by use of diffentiator from the left ventricular pressure. Systemic blood pressure was measured by the left femoral artery by a pressure transducer and heart rate was measured by a cardiotachometer triggered by blood pressure pulses. Test compound was injected into the femoral vein by use of cannule. After completion of the surgical procedures, the cats were allowed to recover about 30 minutes before drug administration. These compounds were dissolved in 0.9% physiological saline and diluted with saline. Solvent such as DMSO or DMF was also used, if necessary. Test compound of 0.1 ml/kg was used. Detailed method was reporated in J. Med. Chem. 30. 1279-87(1987).

Data set [2] concerns BALB/C mice. Briefly: acute toxicity test in BALB/C mice. The format is in vivo, mouse. The conditions noted are these: oral, 200 mg/kg, five mice. The method, then: Acute toxicity test in mice:
Acute toxicity test of 6-(4-methylimidazol-1-yl)-(4H)-3,1-benzothiazine-2-thione was conducted in BALB/C mice. The test compound was suspended in 5% arabic gum solution and administered orally to five mice at a dose of 200 mg/kg body weight by gastric tubing. […] Accordingly, LD50 of the compound is 200 mg/kg or more.

Data set [3] concerns blood perfused papillary muscle preparation. Briefly: contractile power on blood perfused papillary muscle preparation. Also noted: species or system dog. The method, then: Determination of contractile power on blood perfused papillary muscle preparation:
Dogs of either sex weighing 7-12 kg were anesthetized with sodium pentobarbital (30 mg/kg, i.v.). Heparin of 1000 unit/kg was administered to each animal intravenously. The animals were exsanguinated and heart was removed. The preparation was perfused through the cannulated anterior septal artery (ASA) with arterial blood from a donor dog at constant pressure of about […]. Donor dogs were anesthetized with sodium pentobarbital (30 mg/kg, i.v.). Heparin of 1000 units/kg was administered intravenously. The papillary muscle was stimulated with rectangular pulses of 5- ms duration and about 1.5 times the threshold voltage at a rate of 120 stimuli/min through bipolar electrodes. Resting tension was made to 2 g. The developed tension of papillary muscle was determined by Isometric tresducer. Detailed method was reporated by Matsumoto in Am J. Physiol. 218, 1459-1463 (1970). Test compound at the doses of 10-30 ul was injected in flowing blood in the gum tube connected to catheter. The inotropic effect of the test compounds was shown by change percent of developed tension compared with that prior to the administration of the test compounds.

Data set [4] concerns blood-perfused sino-atrial preparation. Briefly: sinus rate on blood-perfused sino-atrial preparation. Also noted: species or system dog. The method, then: Determination of sinus rate on blood-perfused sino-atrial preparation: Mongrel gods of either sex weighing 7-12 kg were anesthetized with sodium pentoba rbital (30 mg/kg i.v.). Heparin ob 1000 unit/kg was administered to each animal intravenously and the animals were exsanguinated. Heart was removed and put in Krebs-Henseleit solution. Catheter was inserted into blood vessel between right coronary artery and SA nodes. Right atrium and catheter were together removed. Blood supplied from carotid artery of donor dog of either sex weighing 15-25 kg, was supplied to blood vessel cather from right coronary artery and SA node under constant blood pressure of 100 mmHG by use of Peristaltic pump. The resting tension of right atrial muscle was made to 2g. The sinus rate triggered by spontaneous contraction of atrial muscle was determined on Narco physiograph Narcotrace 4). Detailed method was reported by S. Chiba, et al. in Japanese Pharmacology 25, 433-439(1975). Doses of test compounds were injected into flowing blood in gum tube connected to the near part of the catheter inserted into right coronary artery. The effects on sinus rate were shown as percent compared with the sinus ratio prior to the injection of the test compounds.

Data set [5] concerns the target T1, cyclic AMP phosphodiesterase (Canis lupus familiaris, UniProt A0A8I3NYE0).
T1 construct: Two to four grams of left ventricular muscle was obtained; from tissue; host or cells: dog left ventricular muscle, detergent-extracted particulate fraction, DEAE-cellulose pool
T1 sequence (A0A8I3NYE0 1-1135): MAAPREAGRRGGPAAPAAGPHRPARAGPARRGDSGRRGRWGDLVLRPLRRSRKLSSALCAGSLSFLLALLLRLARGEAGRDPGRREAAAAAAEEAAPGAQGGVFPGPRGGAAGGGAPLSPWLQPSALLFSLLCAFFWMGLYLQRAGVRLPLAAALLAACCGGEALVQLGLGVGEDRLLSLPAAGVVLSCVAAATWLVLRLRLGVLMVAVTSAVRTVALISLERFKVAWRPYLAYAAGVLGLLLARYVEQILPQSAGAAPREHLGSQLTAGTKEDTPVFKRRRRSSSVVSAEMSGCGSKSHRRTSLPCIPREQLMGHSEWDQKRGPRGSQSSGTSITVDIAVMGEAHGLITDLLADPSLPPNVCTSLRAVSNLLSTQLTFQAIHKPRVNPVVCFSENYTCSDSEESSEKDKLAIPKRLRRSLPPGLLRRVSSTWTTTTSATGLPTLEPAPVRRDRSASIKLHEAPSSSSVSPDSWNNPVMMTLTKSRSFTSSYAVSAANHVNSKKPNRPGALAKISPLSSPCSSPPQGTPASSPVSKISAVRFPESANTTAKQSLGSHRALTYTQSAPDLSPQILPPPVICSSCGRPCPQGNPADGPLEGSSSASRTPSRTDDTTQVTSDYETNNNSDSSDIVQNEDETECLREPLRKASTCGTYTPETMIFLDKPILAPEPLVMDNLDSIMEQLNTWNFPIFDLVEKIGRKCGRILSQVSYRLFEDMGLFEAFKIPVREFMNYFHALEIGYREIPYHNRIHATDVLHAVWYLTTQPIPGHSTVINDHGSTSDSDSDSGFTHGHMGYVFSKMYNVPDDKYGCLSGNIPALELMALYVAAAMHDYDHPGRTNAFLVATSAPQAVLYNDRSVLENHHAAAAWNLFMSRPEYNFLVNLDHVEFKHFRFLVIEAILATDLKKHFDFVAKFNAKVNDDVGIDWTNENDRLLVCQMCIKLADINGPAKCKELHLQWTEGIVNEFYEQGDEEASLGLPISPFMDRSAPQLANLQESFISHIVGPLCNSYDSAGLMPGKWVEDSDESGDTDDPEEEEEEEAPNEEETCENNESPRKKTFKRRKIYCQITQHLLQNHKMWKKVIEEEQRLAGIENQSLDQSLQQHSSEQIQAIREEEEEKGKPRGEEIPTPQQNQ
Briefly: effect on cyclic AMP phosphodiesterase isolated from dog's heart. In kind it is biochemical. The settings on record: substrate 1.0 uM, pH 8.0; read-out: IC 50 (50% inhibition of substrate hydrolysis).

In the case of `Cc1cn(-c2ccc3c(c2)CSC(=S)N3)cn1` [6-(4-methylimidazol-1-yl)-(4H)-3,1-benzothiazine-2-thione], the change in vivo at 0.01 mg/kg in data set [1] (read-out: HR (%)) turned out to be 0%; in data set [1] (read-out: LV dp/dt (%)), 3.7%; in data set [1] (read-out: LVP (%)), 0%; in data set [1] (read-out: SBP (%)) it was 4%; in data set [1] (read-out: dBP), 4%; in data set [1] (read-out: mBP (%)), 4%. For the same compound, the change in vivo at 0.03 mg/kg in data set [1] (read-out: HR (%)) was 2.1%; in data set [1] (read-out: LV dp/dt (%)) it was 18.5%; in data set [1] (read-out: LVP (%)), 0%; in data set [1] (read-out: SBP (%)), 0%; in data set [1] (read-out: dBP) it was -4%; in data set [1] (read-out: mBP (%)), -3%. For the same compound, the change in vivo at 0.1 mg/kg in data set [1] (read-out: HR (%)) is 3.6%; in data set [1] (read-out: LV dp/dt (%)) it was 40.7%; in data set [1] (read-out: LVP (%)), 1.2%; in data set [1] (read-out: SBP (%)), -4.7%; in data set [1] (read-out: dBP) it was -14%; in data set [1] (read-out: mBP (%)) it was -10%. For the same compound, the dead animals entry in data set [2] is “no dead animal was found”.
`Cc1cn(-c2cc(C)c3c(c2)COC(=O)N3)cn1` [8-methyl-6-(4-methylimidazol-1-yl)-(4H)-3,1-benzoxazin-2-one]: the activation at 0.0001 mg amounted to 4.3% in data set [3] (Canis lupus familiaris, dose 0.1 ug, read-out: change of contractivity (%)) and 0.8% in data set [4] (Canis lupus familiaris, dose 0.1 ug, read-out: change of sinus rate (%)). Also, the activation at 0.0003 mg in data set [3] (Canis lupus familiaris, dose 0.3 ug, read-out: change of contractivity (%)) came out at 8.7%; in data set [4] (Canis lupus familiaris, dose 0.3 ug, read-out: change of sinus rate (%)), 1.7%. The activation at 0.001 mg came out at 23.9% in data set [3] (Canis lupus familiaris, dose 1.0 ug, read-out: change of contractivity (%)) and 6.6% in data set [4] (Canis lupus familiaris, dose 1.0 ug, read-out: change of sinus rate (%)). In addition, the activation at 0.003 mg worked out at 79.2% in data set [3] (Canis lupus familiaris, dose 3.0 ug, read-out: change of contractivity (%)) and 5.8% in data set [4] (Canis lupus familiaris, dose 3.0 ug, read-out: change of sinus rate (%)). In data set [3] (least-square method), the “ED 30 (developed tension of papillary muscle)” value was determined as 1.2 µg. For the same compound, in data set [4] (at the ED 30 dose), the “change of sinus rate (%)” value is listed as “+5.0%”. Besides, the change in vivo at 0.01 mg/kg in data set [1] (read-out: HR (%)) was 2%; in data set [1] (read-out: LV dp/dt (%)), 20%; in data set [1] (read-out: LVP (%)) it was 0.1%; in data set [1] (read-out: SBP (%)), -1.7%; in data set [1] (read-out: dBP) it was -8.5%; in data set [1] (read-out: mBP (%)), -5.5%. The change in vivo at 0.1 mg/kg in data set [1] (read-out: HR (%)) was 7.5%; in data set [1] (read-out: LV dp/dt (%)) it was 50%; in data set [1] (read-out: LVP (%)), 4.4%; in data set [1] (read-out: SBP (%)), -6.6%; in data set [1] (read-out: dBP), -20%; in data set [1] (read-out: mBP (%)), -13.9%. The change in vivo at 0.31 mg/kg is 4.4% in data set [1] (read-out: HR (%)); 40% in data set [1] (read-out: LV dp/dt (%)); 1.2% in data set [1] (read-out: LVP (%)); -3.4% in data set [1] (read-out: SBP (%)); -14.3% in data set [1] (read-out: dBP); -9.3% in data set [1] (read-out: mBP (%)). Moreover, the IC50 in data set [5] is 2.4 µM and 4.3 µM and 4.05 µM.
